According to US10785975B2, “Water and feed antimicrobial preservative” (priority 2009, dated 2020):
Read-outs that look alike come from different tables or passages of the source.

Legend:
Salmonella typhimurium [1] = assay: Example 3: buffered organic acid mixtures with pelargonic acid in water; type: cell-based
Procedure: (§1) Procedure: Propionic and acetic acids were buffered with ammonium hydroxide to a pH of 3 and combined with pelargonic in the ratios above. Acid content of the buffered solutions was determined by weight to weight ratio calculation (weight of acid/total weight of buffered solution) and adjusted to provide an equal acid value for each treatment. […] The pHs of the deionized water solutions were recorded and any problems with solubility noted.
(§2) 100 ul of a nutrient broth culture of Salmonella typhimurium was added to each dilution tube. After addition, tubes were vortexed and allowed to stand. At 4 and 24 hours after addition of the inoculum, 100 ul of the solution was plated on Standard Plate agar (triplicate plates). Plates were incubated at 37° C. for 24 hours prior to enumeration. The minimum effective dose of each acid was determined by linear regression.

Salmonella typhimurium [2] = assay: Study 6: capric acid in acetic or propionic acid against salmonella in poultry feed; type: cell-based; conditions: Capric/Acetic acids, 24 hours after treatment
Procedure: Commercial poultry feed amended with Salmonella typhimurium was treated with 1 or 3 kg/MT of the solutions listed below. Twenty four hours after treatment, 10 gr of feed was added to 90 ml Butterfield buffer, mixed and then 100 ul of the solution was plated on Standard Plate agar (triplicate plates). Plates were incubated at 37° C. for 24 hours prior to enumeration.

M. gypseum = conditions: acids tested independently, cited from earlier work
Salmonella typhimurium [3] = assay: Example 1: effect of pH buffering of acetic and propionic acid on antimicrobial activity in water; type: cell-based; conditions: for MIC at 4 Hr / MIC at 24 HR: Minimum Inhibitory Concentrations, by linear regression over 0.025-0.1% acid solutions, pH 3
Procedure: Propionic and acetic acids were buffered with ammonium hydroxide to pHs ranging from 1 to 7. Acid contents of the buffered solutions were determined by a weight to weight ratio calculation to obtain the same acid content in the test solutions. […] The pHs of the deionized water solutions were recorded and any problems with solubility noted.
as §2

Salmonella typhimurium [4] = assay: Study 4: pelargonic acid (1-20%) in buffered propionic or acetic acid in water; type: cell-based
Procedure: as §1, with “Propionic” for “Procedure: Propionic”, “listed.” for “above.”
as §2, with “enumeration.” for “enumeration. The minimum effective dose of each acid was determined by linear regression.”

[5] = Product Conc. 0.025 (% total acid solution in water), 4 hr
[6] = Product Conc. 0.025 (% total acid solution in water)
[7] = Product Conc. 0.05 (% total acid solution in water), 4 hr
[8] = Product Conc. 0.05 (% total acid solution in water)
[9] = Product Conc. 0.075 (% total acid solution in water), 4 hr
[10] = Product Conc. 0.075 (% total acid solution in water)
[11] = Product Conc. 0.1 (% total acid solution in water), 4 hr
[12] = Product Conc. 0.1 (% total acid solution in water)
[13] = Product Conc. 0.025 (% acid solution in water)
[14] = Product Conc. 0.05 (% acid solution in water)
[15] = Product Conc. 0.075 (% acid solution in water)
[16] = Product Conc. 0.1 (% acid solution in water)
[17] = Product Concentration 0.025 (% total acid solution in water)
[18] = Product Concentration 0.05 (% total acid solution in water)

Q: With `CC(=O)O` [Acetic acid] as the compound, how does the “MIC at 4 HR” value (Salmonella typhimurium [1]; Minimum Inhibitory Concentration of Pelargonic when mixed with acetic or propionic acid (buffered to pH 3), by linear regression, 4 hr) read?
A: 0.171

Q: What about the “% Reduction” value (Salmonella typhimurium [2]; 1 kg/ton) of the same compound?
A: 41.3%

Q: What about the cfu/g (Salmonella typhimurium [2]; 1 kg/ton) of the same compound?
A: 3367 cfu/g

Q: And the “% Reduction” value (Salmonella typhimurium [2]; 3 kg/ton)?
A: 54.6%

Q: And the cfu/g (Salmonella typhimurium [2]; 3 kg/ton)?
A: 2600 cfu/g

Q: With `CCCCCCCCCC(=O)O` [capric acid] as the compound, how does the “minimum inhibitory concentration (MTC) to prevent growth of M. gypseum” value (M. gypseum; in liquid media) read?
A: 75 µg/mL

Q: What about the “minimum inhibitory concentration (MTC) to prevent growth of M. gypseum” value (M. gypseum; on solid media) of the same compound?
A: 20 µg/mL

Q: Which results are given for `CCC(=O)O` [Propionic pH 3, Propionic acid]?
A: Salmonella at time Interval 4 hr % reduction (Salmonella typhimurium [1]; [5]): 25%; Salmonella at time Interval 4 hr cfu/g (Salmonella typhimurium [1]; [5]): 1133 cfu/g; Salmonella at time Interval 24 hr % reduction (Salmonella typhimurium [1]; [6]): 95%; Salmonella at time Interval 24 hr cfu/g (Salmonella typhimurium [1]; [6]): 70 cfu/g; Salmonella at time Interval 4 hr % reduction (Salmonella typhimurium [1]; [7]): 42%; Salmonella at time Interval 4 hr cfu/g (Salmonella typhimurium [1]; [7]): 880 cfu/g; Salmonella at time Interval 24 hr % reduction (Salmonella typhimurium [1]; [8]): 99%; Salmonella at time Interval 24 hr cfu/g (Salmonella typhimurium [1]; [8]): 17 cfu/g; Salmonella at time Interval 4 hr % reduction (Salmonella typhimurium [1]; [9]): 25%; Salmonella at time Interval 4 hr cfu/g (Salmonella typhimurium [1]; [9]): 1133 cfu/g; Salmonella at time Interval 24 hr % reduction (Salmonella typhimurium [1]; [10]): 99%; Salmonella at time Interval 24 hr cfu/g (Salmonella typhimurium [1]; [10]): 20 cfu/g; Salmonella at time Interval 4 hr % reduction (Salmonella typhimurium [1]; [11]): 44%; Salmonella at time Interval 4 hr cfu/g (Salmonella typhimurium [1]; [11]): 857 cfu/g; Salmonella at time Interval 24 hr % reduction (Salmonella typhimurium [1]; [12]): 99%; Salmonella at time Interval 24 hr cfu/g (Salmonella typhimurium [1]; [12]): 13 cfu/g; MIC at 4 Hr (Salmonella typhimurium [3]): 0.149; MIC at 24 HR (Salmonella typhimurium [3]): 0.069; Salmonella at time Interval 4 hr % reduction (Salmonella typhimurium [3]; [13]): 2%; Salmonella at time Interval 4 hr cfu/g (Salmonella typhimurium [3]; [13]): 1467 cfu/g; Salmonella at time Interval 24 hr % reduction (Salmonella typhimurium [3]; [13]): 84%; Salmonella at time Interval 24 hr cfu/g (Salmonella typhimurium [3]; [13]): 190 cfu/g; Salmonella at time Interval 4 hr % reduction (Salmonella typhimurium [3]; [14]): 44%; Salmonella at time Interval 4 hr cfu/g (Salmonella typhimurium [3]; [14]): 847 cfu/g; Salmonella at time Interval 24 hr % reduction (Salmonella typhimurium [3]; [14]): 93%; Salmonella at time Interval 24 hr cfu/g (Salmonella typhimurium [3]; [14]): 83 cfu/g; Salmonella at time Interval 4 hr % reduction (Salmonella typhimurium [3]; [15]): 35%; Salmonella at time Interval 4 hr cfu/g (Salmonella typhimurium [3]; [15]): 973 cfu/g; Salmonella at time Interval 24 hr % reduction (Salmonella typhimurium [3]; [15]): 95%; Salmonella at time Interval 24 hr cfu/g (Salmonella typhimurium [3]; [15]): 60 cfu/g; Salmonella at time Interval 4 hr % reduction (Salmonella typhimurium [3]; [16]): 60%; Salmonella at time Interval 4 hr cfu/g (Salmonella typhimurium [3]; [16]): 603 cfu/g; Salmonella at time Interval 24 hr % reduction (Salmonella typhimurium [3]; [16]): 98%; Salmonella at time Interval 24 hr cfu/g (Salmonella typhimurium [3]; [16]): 27 cfu/g; Salmonella at time Interval 4 hr % reduction (Salmonella typhimurium [4]; [17]): 29%; Salmonella at time Interval 4 hr cfu/g (Salmonella typhimurium [4]; [17]): 990 cfu/g; Salmonella at time Interval 24 hr % reduction (Salmonella typhimurium [4]; [17]): 91%; Salmonella at time Interval 24 hr cfu/g (Salmonella typhimurium [4]; [17]): 130 cfu/g; Salmonella at time Interval 4 hr % reduction (Salmonella typhimurium [4]; [18]): 29%; Salmonella at time Interval 4 hr cfu/g (Salmonella typhimurium [4]; [18]): 1000 cfu/g; Salmonella at time Interval 24 hr % reduction (Salmonella typhimurium [4]; [18]): 96%; Salmonella at time Interval 24 hr cfu/g (Salmonella typhimurium [4]; [18]): 50 cfu/g

Q: For `CC(=O)O` [Acetic pH 3, Acetic acid], which “Salmonella at time Interval 4 hr % reduction” value (Salmonella typhimurium [1]; [5]) is on record?
A: 38%

Q: And the “Salmonella at time Interval 4 hr cfu/g” value (Salmonella typhimurium [1]; [5])?
A: 943 cfu/g

Q: What about the “Salmonella at time Interval 24 hr % reduction” value (Salmonella typhimurium [1]; [6]) of the same compound?
A: 92%

Q: And the “Salmonella at time Interval 24 hr cfu/g” value (Salmonella typhimurium [1]; [6])?
A: 123 cfu/g

Q: What about the “Salmonella at time Interval 4 hr % reduction” value (Salmonella typhimurium [1]; [7]) of the same compound?
A: 34%

Q: And the “Salmonella at time Interval 4 hr cfu/g” value (Salmonella typhimurium [1]; [7])?
A: 1007 cfu/g

Q: And the “Salmonella at time Interval 24 hr % reduction” value (Salmonella typhimurium [1]; [8])?
A: 92%

Q: And the “Salmonella at time Interval 24 hr cfu/g” value (Salmonella typhimurium [1]; [8])?
A: 120 cfu/g

Q: What about the “Salmonella at time Interval 4 hr % reduction” value (Salmonella typhimurium [1]; [9]) of the same compound?
A: 34%

Q: What about the “Salmonella at time Interval 4 hr cfu/g” value (Salmonella typhimurium [1]; [9]) of the same compound?
A: 1007 cfu/g

Q: And the “Salmonella at time Interval 24 hr % reduction” value (Salmonella typhimurium [1]; [10])?
A: 95%

Q: What about the “Salmonella at time Interval 24 hr cfu/g” value (Salmonella typhimurium [1]; [10]) of the same compound?
A: 77 cfu/g

Q: What about the “Salmonella at time Interval 4 hr % reduction” value (Salmonella typhimurium [1]; [11]) of the same compound?
A: 36%

Q: And the “Salmonella at time Interval 4 hr cfu/g” value (Salmonella typhimurium [1]; [11])?
A: 967 cfu/g

Q: And the “Salmonella at time Interval 24 hr % reduction” value (Salmonella typhimurium [1]; [12])?
A: 95%

Q: And the “Salmonella at time Interval 24 hr cfu/g” value (Salmonella typhimurium [1]; [12])?
A: 83 cfu/g

Q: And the “MIC at 4 Hr” value (Salmonella typhimurium [3])?
A: 0.176

Q: And the “MIC at 24 HR” value (Salmonella typhimurium [3])?
A: 0.073

Q: What about the “Salmonella at time Interval 4 hr % reduction” value (Salmonella typhimurium [3]; [13]) of the same compound?
A: 27%

Q: And the “Salmonella at time Interval 4 hr cfu/g” value (Salmonella typhimurium [3]; [13])?
A: 1100 cfu/g

Q: And the “Salmonella at time Interval 24 hr % reduction” value (Salmonella typhimurium [3]; [13])?
A: 75%

Q: And the “Salmonella at time Interval 24 hr cfu/g” value (Salmonella typhimurium [3]; [13])?
A: 300 cfu/g

Q: And the “Salmonella at time Interval 4 hr % reduction” value (Salmonella typhimurium [3]; [14])?
A: 44%

Q: And the “Salmonella at time Interval 4 hr cfu/g” value (Salmonella typhimurium [3]; [14])?
A: 843 cfu/g

Q: What about the “Salmonella at time Interval 24 hr % reduction” value (Salmonella typhimurium [3]; [14]) of the same compound?
A: 90%

Q: And the “Salmonella at time Interval 24 hr cfu/g” value (Salmonella typhimurium [3]; [14])?
A: 117 cfu/g

Q: What about the “Salmonella at time Interval 4 hr % reduction” value (Salmonella typhimurium [3]; [15]) of the same compound?
A: 38%

Q: And the “Salmonella at time Interval 4 hr cfu/g” value (Salmonella typhimurium [3]; [15])?
A: 927 cfu/g

Q: What about the “Salmonella at time Interval 24 hr % reduction” value (Salmonella typhimurium [3]; [15]) of the same compound?
A: 92%

Q: And the “Salmonella at time Interval 24 hr cfu/g” value (Salmonella typhimurium [3]; [15])?
A: 90 cfu/g

Q: And the “Salmonella at time Interval 4 hr % reduction” value (Salmonella typhimurium [3]; [16])?
A: 42%

Q: What about the “Salmonella at time Interval 4 hr cfu/g” value (Salmonella typhimurium [3]; [16]) of the same compound?
A: 873 cfu/g

Q: And the “Salmonella at time Interval 24 hr % reduction” value (Salmonella typhimurium [3]; [16])?
A: 96%

Q: And the “Salmonella at time Interval 24 hr cfu/g” value (Salmonella typhimurium [3]; [16])?
A: 43 cfu/g

Q: What about the “Salmonella at time Interval 4 hr % reduction” value (Salmonella typhimurium [4]; [17]) of the same compound?
A: 29%

Q: What about the “Salmonella at time Interval 4 hr cfu/g” value (Salmonella typhimurium [4]; [17]) of the same compound?
A: 1000 cfu/g

Q: What about the “Salmonella at time Interval 24 hr % reduction” value (Salmonella typhimurium [4]; [17]) of the same compound?
A: 96%

Q: What about the “Salmonella at time Interval 24 hr cfu/g” value (Salmonella typhimurium [4]; [17]) of the same compound?
A: 60 cfu/g

Q: What about the “Salmonella at time Interval 4 hr % reduction” value (Salmonella typhimurium [4]; [18]) of the same compound?
A: 32%

Q: And the “Salmonella at time Interval 4 hr cfu/g” value (Salmonella typhimurium [4]; [18])?
A: 950 cfu/g

Q: What about the “Salmonella at time Interval 24 hr % reduction” value (Salmonella typhimurium [4]; [18]) of the same compound?
A: 99%

Q: What about the “Salmonella at time Interval 24 hr cfu/g” value (Salmonella typhimurium [4]; [18]) of the same compound?
A: 20 cfu/g
